Experimental data from patent US20230293591A1, “Therapeutic Substances, their Preparation and Diagnostic Procedure” (KING'S COLLEGE LONDON, priority 2017, published 2023).
Where a SMILES comes first, the peptide text is derived from it. The star is where a group is joined. Cbz = O=C(OCc1ccccc1)*; CH2F = FC*

Key:
[1] = tested on: PGE2; test: PGE2 ELISA in supernatant of MSC co-cultured with IBD patients' PBMC; type: cell-based, human; details: MSC (5×10^4) and patients PBMC (1×10^6), 24 hours, inhibitor 50 μM
Description: In particular MSC (5×10^4) and patients PBMC (1×10^6) were co-cultured for 24 hours, either with or without addition of a pan-caspase inhibibtor, Z-VAD-FMK (50 μM).
Supernatant was collected and PGE2 levels were measured by ELISA.

[2] = tested on: caspase 3; test: Caspase 3 activation in MSC cultured with activated PBMC (FRET-MSC); type: cell-based, human
Description: Luc-MSC were transfected with the pGL3-Control vector containing the SV40 promoter for the expression of Luc+ (Promega, Southampton, UK) or with pECFPDEVDR-Venus (Addgene, Teddington, UK) using electroporation (Gene Pulser Xcell, BioRad, Kidlington, UK). Cells were suspended in a total volume of 250 μl of buffer and electroporated in 0.4 cm gap cuvettes using 10 μg of DNA at 250 volts and […]. When pECFP-DEVDR-Venus was used, the donor fluorophore pECFP and the acceptor Venus-YFP were linked through the flexible linker DEVDR which is recognized and cleaved by the active form of caspase 3. In this system caspase 3 activity can be monitored through the analysis of the Förster Resonance Energy Transfer (FRET) between pECFP and Venus-YFP. […]
The following antibodies specific for murine molecules were used: anti-CD45 (FITC, Clone 30-F11) (eBiosciences Ltd, Hatfield, UK), anti-Vβ8.3 (FITC, Clone 1B3.3), antiCD8 (APC, Clone 53-6.7), antiCD4 (PE, Clone H129.19), anti-CD19 (APC-H7, Clone 1D3), anti-NK1.1 (PerCP-Cy5.5, Clone PK136) (BD Biosciences, Oxford, UK), anti-CD11b (PerCP-Cy5.5, clone M1/70), anti-CD11c (APC-Cy7, clone n418), anti-Ido1 (Alexa Fluo647, clone 2e2) (BioLegend, London, UK). […] All samples were acquired using BD FACS Canto II using the software FACS Diva and analyzed with Flow-jo software. […]

[3] = tested on: GvHD effector cells (CD8+Vβ8.3+); test: Mouse GvHD model: infiltration of GvHD effector cells in spleen and lungs by flow-cytometry; type: in vivo; details: GvHD mice, IDO inhibitor 2 mg/ml in drinking water from 6 days prior to MSC injection
From the text: Acute GvHD was induced as previously described (T. Toubai et al. Blood, 119, 3844-3853 (2012)). Briefly, after lethal irradiation (11 Gy), recipient C57BL/6 male mice were transplanted with 1×10^6 purified CD8+ cells transgenic for a T-cell receptor specific for the male HY-antigen Uty (Matahari, Mh) from female Mh mice as GvHD effectors (FIG. 9A), 5×10^6 unfractionated bone marrow (BM) and 2×10^6 purified polyclonal CD4+ cells from female syngeneic donors (C57BL/6 wild-type donors). The control group received BM and purified CD4+ cells only. CD4+ and CD8+ T cells were obtained by positive selection using magnetic beads (Miltenyi Biotec Ltd, Bisley, UK). Live MSC (1×10^6) were injected i.v. at day +3, whilst apoMSC (1×10^6) were administered i.v. or i.p. at day +1, +3 and +6 from the transplant. Unless otherwise specified, animals were euthanized for analysis at day +7. The infiltration of GvHD effector cells was assessed by flow-cytometry and the percentage was expressed as proportion of cells in the lymphocyte gate, based on the physical characteristics of the cells.
In this model, the expansion of the T cells effecting GvHD (CD8+Vβ8.3+) can be precisely enumerated.

COC(=O)C[C@H](NC(=O)[C@H](C)NC(=O)[C@@H](NC(=O)OCc1ccccc1)C(C)C)C(=O)CF [Z-VAD-FMK] (Cbz-Val-Ala-Asp(OMe)-CH2F)
PGE2 levels in supernatant [1]: largely reduce
caspase activation in MSC induced by activated PBMC in presence of inhibitor [2]: completely abrogated

Cn1cc(C[C@@H](N)C(=O)O)c2ccccc21 [1-DMT, 1-methyl-D-tryptophan]
beneficial effect of MSC on Mh T cell infiltration [3]: much reduced
